Experimental data from ChEMBL document CHEMBL6177940, “Therapeutic upregulation of DNA repair pathways: strategies and small molecule activators” (RSC Med Chem, 2024).

Tests used:
Mus musculus [1] = species: Mus musculus; assay: Reversal of oxidative stress-induced DNA damage in mouse model assessed as increase in expression of APE1 by measuring fold change
Mus musculus [2] = species: Mus musculus; assay: Reversal of oxidative stress-induced DNA damage in mouse model assessed as increase in expression of OGG1 by measuring fold change
Mus musculus [3] = species: Mus musculus; assay: Reversal of oxidative stress-induced DNA damage in mouse model assessed as increase in expression of XRCC1 by measuring fold change
[4] = Activation of Flag/His-tagged human recombinant OGG1 (1 to 345 residues) by fluorescence based analysis
[5] = Upregulation of OGG1 expression in mouse MCT cells assessed as fold increase at 2 mM
[6] = biological target: T1, NAD-dependent protein deacetylase sirtuin-1 (Homo sapiens) (UniProt Q96EB6); assay: Activation of N-terminal Hex/Histidine-tagged human SIRT1 extracted from Escherichia coli BL21 (DE3) by Fluorescence polarization assay; settings: filed as activator
T1 sequence (whole entry): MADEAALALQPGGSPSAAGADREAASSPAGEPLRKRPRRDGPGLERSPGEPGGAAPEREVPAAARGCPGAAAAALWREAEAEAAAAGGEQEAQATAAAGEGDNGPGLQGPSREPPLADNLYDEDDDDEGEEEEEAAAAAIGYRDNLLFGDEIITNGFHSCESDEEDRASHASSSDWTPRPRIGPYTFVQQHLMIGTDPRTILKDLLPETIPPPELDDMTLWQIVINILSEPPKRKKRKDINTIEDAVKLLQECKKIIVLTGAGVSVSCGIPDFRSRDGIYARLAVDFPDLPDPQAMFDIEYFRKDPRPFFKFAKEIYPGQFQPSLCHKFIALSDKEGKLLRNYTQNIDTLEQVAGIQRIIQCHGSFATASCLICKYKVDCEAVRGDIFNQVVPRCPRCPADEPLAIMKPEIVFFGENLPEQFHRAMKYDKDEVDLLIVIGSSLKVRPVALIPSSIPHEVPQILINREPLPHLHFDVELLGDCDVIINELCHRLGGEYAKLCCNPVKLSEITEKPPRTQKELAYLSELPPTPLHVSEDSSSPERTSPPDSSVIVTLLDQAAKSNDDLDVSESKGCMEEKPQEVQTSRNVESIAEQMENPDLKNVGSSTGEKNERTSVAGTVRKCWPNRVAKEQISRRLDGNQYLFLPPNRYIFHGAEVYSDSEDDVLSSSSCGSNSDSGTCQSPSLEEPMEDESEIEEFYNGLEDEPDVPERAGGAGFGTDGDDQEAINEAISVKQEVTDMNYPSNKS

[7] = Activation of rat liver AMPK
[8] = Induction of DNA repair activity in human SUM149PT cells harboring BRCA1 mutant co-expressing GFP reporter gene at 1 uM relative to control; type: functional
[9] = Induction of DNA repair activity in human SUM149PT cells harboring BRCA1 mutant co-expressing GFP reporter gene at 100 uM relative to control; type: functional
HCC1937 = assay: Antitumor activity against human HCC1937 cells harboring BRAC1 mutant xenografted in NOD/SCID mouse assessed as increase in survival rate at 250 mg/kg, ip measured after 60 days relative to control; type: functional; settings: time 60 day
[10] = Upregulation of BRCA1 expression in mouse Bone marrow cells at 5 uM; type: functional, Bone marrow cell
[11] = Upregulation of BRCA2 expression in mouse Bone marrow cells at 5 uM; type: functional, Bone marrow cell
[12] = Activation of MTH1 (unknown origin); set-up: species or system Homo sapiens
HCC1806 = assay: Antiproliferative activity against human HCC1806 cells assessed as reduction in cell viability incubated for 72 hrs by MTT assay; type: functional, cell-based; settings: HCC1806, 72 h
[13] = Upregulation of OGG1 level in human A549 cells at 30 uM measured for 48 hrs relative to control; type: functional

O=c1c(O)c(-c2ccc(O)c(O)c2)oc2cc(O)cc(O)c12 [QUERCETIN]
fold change (FC) (Mus musculus [1]): 2 | fold change (FC) (Mus musculus [2]): 2 | fold change (FC) (Mus musculus [3]): 2

CNc1nnc(C)c2c1cc(-c1ccc(F)cc1)n2C
EC50 [4]: 5.1 µM

NC(=O)c1ncn([C@H]2O[C@@H](COP(=O)(O)O)[C@H](O)[C@@H]2O)c1N
fold change (FC) [5]: 5

COc1cc(C(=O)Nc2ccccc2-c2cn3c(CN4CCNCC4)csc3n2)cc(OC)c1OC
EC1.5 [6]: 2.9 µM

Cc1cnc(N2CCN3CCCC3C2)nc1Oc1ccc(-n2ccnc2)cc1 (stereo not given)
EC50 [4]: 4.6 µM

Cc1nc(-c2cccnc2)sc1C(=O)Nc1ccccc1-c1cn2c(CN3CCOCC3)csc2n1
EC1.5 [6]: 0.43 µM

Nc1ncnc2c1ncn2[C@H]1O[C@@H](COP(=O)(O)O)[C@H](O)[C@@H]1O
EC50 [7]: 6 µM

CC(=O)c1ccc(S(=O)(=O)NC(=O)NC2CCCCC2)cc1 [ACETOHEXAMIDE]
Activity [8]: 90%

NC(CO)C(=O)NNCc1ccc(O)c(O)c1O (stereo not given) [BENSERAZIDE]
Activity [9]: 60% | Activity (HCC1937): <=70%

COc1cc(/C=C/C(=O)CC(=O)/C=C/c2ccc(O)c(OC)c2)ccc1O [CURCUMIN]
Activity [10]: 170% | Activity [11]: 170%

O=C(Nc1ccc(CN2CCOCC2)c(C(F)(F)F)c1)c1ccc(C#Cc2cccc3cnccc23)cn1
EC50 [12]: 5.5 µM | IC50 (HCC1806): 10 µM

Cc1cc(N[C@@H](C)C(=O)Nc2ccccc2)nc(Nc2ccccc2)n1
EC50 [4]: 4.1 µM

OC(Cn1ccnc1)(c1ccc(Cl)cc1Cl)C1CCCCC1 (stereo not given)
EC50 [4]: 5 µM | Activity [13]: 142.3%

N#Cc1c(O)c2c(-c3ccc(-c4ccccc4O)cc3)csc2[nH]c1=O
EC50 [7]: 0.116 µM
